Source: publication PMC10107299, “Neutralizing the Impact of the Virulence Factor LecA from Pseudomonas aeruginosa on Human Cells with New Glycomimetic Inhibitors” (Angewandte Chemie (International Ed. in English), 2023)
Values after ≈ are worked out from the molar mass of the structure shown. Like-named read-outs stand apart in the source and are kept apart here.

Experiments:
[1] = Kinetic solubility in TBS/Ca2+ buffer (HPLC-MS); format: physicochemical; settings: aqueous buffer, kinetic from dmso stock; TBS/Ca2+ buffer pH 7.4, 1 % DMSO, N≥3; read-out: Solubility S (kinetic)
Method: Next, we quantified the solubility of at least one representative of each new class and of one parent bisacylhydrazone in aqueous media (Table 1). […]
TBS/Ca2+ buffer (20 mM Tris, 137 mM NaCl, 2.6 mM KCl at pH 7.4 supplemented with 1 mM […]
CaCl2) in presence of 25% DMSO. […]
Kinetic solubility was determined on the analytical HPLC-MS using Compass QuantAnalysis quantification software (Bruker). Samples were prepared from DMSO stock solutions by dilution with TBS/Ca2+ buffer to 100 µM with 1% DMSO present. Samples were incubated on a shaker for 1 h at r.t., centrifuged (21380 g, 20 min), supernatants were diluted with DMSO (1:3), analyzed by HPLC-MS and fitted to the individual calibration curves.
Every experiment was repeated independently at least three times. […]

in vitro = in vitro ADME; settings: pH 7.4, 37 °C
Method: Then, we analyzed the stability of the compounds in plasma. […] The observed increase in plasma stability of the tested amide derivatives compared to bisacylhydrazone 14 supports our design hypothesis for the isosteric replacement of the bisacylhydrazone linking motif. […]
Each compound dissolved in DMSO was added to mouse plasma (pH 7.4, 37 °C) or to human plasma (pH 7.4, 37 °C) to yield a final concentration of 1 µM. In addition, procaine and procainamide (dissolved in DMSO) were added to mouse plasma or to human plasma (pH 7.4, 37 °C) to yield a final concentration of 1 µM. Procaine served as positive control as it is unstable in mouse plasma. Procainamide served as negative control as it is stable in mouse plasma. The samples were incubated for 0 min, 15 min, 30 min, 60 min, 90 min, 120 min and 240 min at 37 °C. At each time point, 10 µl of the respective sample was extracted with 90 µL acetonitrile containing 12.5 ng/mL caffeine as internal standard for 5 min at 2000 rpm on a MixMate vortex […]
mixer (Eppendorf). Acetonitrile and caffeine were dispensed using a Mantis Formulatrix. Then samples were centrifuged for 20 min at 2.270 x g at 4 °C and the supernatants were transferred to 96-well Greiner V-bottom plates. Peak areas of each compound and of the internal standard were analyzed using the MultiQuant 3.0 software (AB Sciex). Peak areas of the respective compound were normalized to the internal standard peak area and to the respective peak areas at time point 0 min: (C/D)/(A/B) with A: peak area of the compound at time point 0 min, B: peak area of the internal standard at time point 0 min, C: peak area of the compound at the respective time point, D: peak area of the internal standard at the respective time point. […]
2 hours at 800 rpm on an Eppendorf MixMate vortex-mixer. Then samples were withdrawn from the respective chambers. To 25 µL of each dialysis sample, 25 µL of plasma and to 25 µL of plasma sample, 25 µL of dialysis buffer was added. Then 150 µL ice-cold extraction solvent (ACN/H2O (90:10) containing 12.5 ng/mL caffeine as internal standard) was added. Samples were incubated for 30 min on ice. Then samples were centrifuged at 4 °C at 2270 x g for 10 min.

[2] = In vitro metabolic stability, mouse liver microsomes; format: in vitro ADME; settings: N=3, read-out: CLint MLM
Method: Acetonitrile and caffeine were dispensed using a Mantis Formulatrix. Then samples were centrifuged for 20 min at 2.270 x g at 4 °C and the supernatants were transferred to 96-well Greiner V-bottom plates. Peak areas of each compound and of the internal standard were analyzed using the MultiQuant 3.0 software (AB Sciex). Peak areas of the respective compound were normalized to the internal standard peak area and to the respective peak areas at time point 0 min: (C/D)/(A/B) with A: peak area of the compound at time point 0 min, B: peak area of the internal standard at time point 0 min, C: peak area of the compound at the respective time point, D: peak area of the internal standard at the respective time point.
(§1) In vitro metabolic stability assay
(§2) Liver microsomes (mouse and human, Thermo Fisher) were thawed slowly on ice. 20 mg/mL of microsomes, 2 µL of a 100 µM solution of every compound and 183 µL of 100 mM phosphate buffer were incubated 5 min at 37 °C in a water bath. Reactions were initiated using 10 µL of 20 mM NADPH (CarlRoth). Samples were incubated in three replicates at 37 °C under gentle agitation at 150 rpm. At 0, 5, 15, 30, and 60 min, reactions were terminated by the addition of 180 µL acetonitrile using a Mantis Formulatrix dispenser. Samples were vortexed for 5 min using an Eppendorf MixMate vortex mixer and centrifuged at 2.270 x g for 20 min at 4 °C. The supernatants were transferred to 96-well Greiner V-bottom plates, sealed and analyzed according to the section HPLC-MS analysis. Peak areas of the respective time point of the compounds were normalized to the peak area at time point 0 min. Then half-life was calculated using linear regression (Microsoft Excel). Clint [µL/min/mg protein] was calculated using the following formula: […]

[3] = In vitro metabolic stability, human liver microsomes; format: in vitro ADME; settings: N=3, read-out: CLint HLM
Method: We then determined the in vitro metabolic stability in plasma and liver microsomes as well as plasma protein binding for a selected subset of the synthesized LecA inhibitors, i.e. D1, D2, H1, H2 and L2 and compared them to the parent bisacylhydrazone 14 (Table 2). […] The metabolic stability of the compounds differed in presence of human liver microsomes (HLM). Introduction of a pyridine ring decreased stability (H1 CLint=28.6 μL min^−1/mg protein, H2 CLint=32.5 μL min^−1/mg protein) compared to the benzene analogues (D1 CLint=21.9 μL min^−1/mg protein, D2 CLint=21.0 μL min^−1/mg protein) and to the parent acylhydrazone 14 (CLint=19.6 μL min^−1/mg protein). […]
mixer (Eppendorf). Acetonitrile and caffeine were dispensed using a Mantis Formulatrix. Then samples were centrifuged for 20 min at 2.270 x g at 4 °C and the supernatants were transferred to 96-well Greiner V-bottom plates. Peak areas of each compound and of the internal standard were analyzed using the MultiQuant 3.0 software (AB Sciex). Peak areas of the respective compound were normalized to the internal standard peak area and to the respective peak areas at time point 0 min: (C/D)/(A/B) with A: peak area of the compound at time point 0 min, B: peak area of the internal standard at time point 0 min, C: peak area of the compound at the respective time point, D: peak area of the internal standard at the respective time point.
as §1, §2

P. aeruginosa = tested on: P. aeruginosa; parameters: method as in PMID 25136128, PMID 25044671; settings: 10 mM; cited from earlier work
P. aeruginosa PAO1 = experiment: Invasion assay of P. aeruginosa PAO1 into H1299 cells; format: cell-based, Pseudomonas aeruginosa; settings: PAO1 into H1299 cells, N≥4
Method: P. aeruginosa is able to invade non‐phagocytic cells via a lipid zipper mechanism.[10] Binding of LecA to the glycosphingolipid Gb3 followed by LecA‐induced receptor clustering plays a crucial role in this process. The LecA ligand 4‐nitrophenyl α‐ D‐galactopyranoside (PNPG) has been previously shown to interfere with these events at a high concentration of 10 mM leading to a reduction of bacterial invasiveness to 30–60 % as compared to untreated bacteria (100 % invasiveness).[10, 31] For invasion assays, H1299 cells were incubated with P. aeruginosa in presence and absence of LecA inhibitors, followed by killing of extracellular bacteria with the antibiotic amikacin. Then, all intracellular bacteria were released by lysis of the human cells and viable bacteria were quantified by plating. To assess the impact of LecA inhibitors on the invasiveness, the influence of the divalent LecA inhibitor L2 on bacterial invasion into host cells was evaluated and compared to PNPG. […] In contrast, the divalent LecA ligand L2 achieved an invasion decrease to 44 % already at 100 μM (Figure 5c). L2 was thus able to reach a similar reduction of invasion at a 100‐fold lower concentration than the one needed for PNPG. […]
lectin-inhibitor solution for 24 h at 37 °C. In order to depict exactly the same position for each wound, marker lines were drawn on the bottom of the 12-well plates for each well. The samples were imaged with an EVOS microscope (PEQLAB by VWR Life Sciences, Avantor […]
Excel. […]
A chromosomally GFP-tagged Gentamicin-resistant Pseudomonas aeruginosa PAO1 strain was cultured (LB medium supplemented with 60 µg/mL Gentamicin, 37 °C, 180 rpm, 16 h) and invasion assays were performed in analogy to Eierhoff et al..[13] 1.5 x 10^4 H1299 cells per well were seeded one day prior to the invasion assay in a 96-well plate with flat bottom. An […]
overnight culture of P. aeruginosa was centrifuged for 5 min at 3000 x g, washed with PBS (- /-) and re-suspended in RPMI 1640 medium. The newly synthesized divalent LecA ligand L2 was compared to 4-nitrophenyl α-D-galactopyranoside (PNPG; Sigma-Aldrich, Chemie GmbH, Darmstadt, Germany). […]
Subsequently, cells were washed three times with DPBS and lysed by incubation with 0.25% (v/v) Triton X-100 (Carl Roth GmbH & Co. KG, Karlsruhe, Germany) for 5 min at 37 °C and 180 rpm. […] Bacterial colonies were counted the next day. […] The invasion rate was calculated as the number of intracellularly localized bacteria divided by the total number of non-treated bacteria, bacteria that were not treated with any ligands and neither amikacin, thus the number of P. aeruginosa that successfully invaded or stayed attached to the host cells. Experiments were repeated independently at least four times (N ≥ 4) and evaluated […]

Compound	solubility kinetic at 1 h [1] [µM]	half-life at 1 µM (in vitro; human plasma, read-out: Plasma stability t1/2 Human) [h]	half-life at 1 µM (in vitro; mouse plasma, read-out: Plasma stability t1/2 Mouse) [h]	microsomal CLint at 1 µM [2] [µL/min/mg]	microsomal CLint at 1 µM [3] [µL/min/mg]	Bacterial invasiveness (untreated bacteria 100 %) (P. aeruginosa)	Bacterial invasiveness (untreated bacteria 100 %) (P. aeruginosa PAO1; 100 μM inhibitor) [%]	Bacterial invasiveness (untreated bacteria 100 %) (P. aeruginosa PAO1; 10 mM inhibitor) [%]
O=C(N/N=C/c1ccc(OCCOc2ccc(/C=N/NC(=O)c3ccc(O[C@@H]4O[C@H](CO)[C@H](O)[C@H](O)[C@H]4O)cc3)cc2)cc1)c1ccc(O[C@@H]2O[C@H](CO)[C@H](O)[C@H](O)[C@H]2O)cc1 [Compound 14, reference compound]	1.6 ± 0.4 (≈ 1.38 µg/mL)	2.06	0.815	< 23	19.6			
O=[N+]([O-])c1ccc(O[C@H]2O[C@H](CO)[C@H](O)[C@H](O)[C@H]2O)cc1 [PNPG, 4-nitrophenyl α-D-galactopyranoside, reference compound]						30–60%	89	44
